# Patent US20190328749A1, “FORMULATION OF LONG-ACTING LEVONORGESTREL BUTANOATE INJECTABLE DEPOT SUSPENSION” (Eastern Virginia Medical School, priority 2016, published 2019)
# Values joined by “and” are separate entries in the source; they are usually repeats but may differ in a detail not shown here. Equal values may be shown once.
# Columns and labels:
# [1] = tested on: ovulation; test: monkey study, time to return to ovulation / duration of action; type: in vivo, non-human primates
# [2] = particle size distribution of micronized LB drug substance (dry milled, wet milled, spray dried); type: physicochemical
# Experimental: FIG. 3 and FIG. 4 show typical particle size distributions and photomicrographs of LB drug substance prepared by dry milling. The dry milled LB powder was dispersed in 1% polysorbate 20 and three replicate measurements of the particle size distribution were made.
# FIG. 5 and FIG. 6 show typical particle size distributions and photomicrographs of LB drug substance prepared by wet milling. After wet milling for 15 minutes, the LB suspension was sampled and three replicate measurements of the particle size distribution were made.
# FIG. 7 and FIG. 8 show typical particle size distributions and photomicrographs of LB drug substance prepared by spray drying processes. The spray dried LB powder was dispersed in 0.5% polysorbate 80 and three replicate measurements of the particle size distribution were made.
# [3] = uniformity of LB particle size distribution and concentration after dispersion/mixing and homogenization; type: physicochemical; conditions: post LB dispersion in Part II & mixing with Part I
# [4] = tested on: ovulation; conditions: women, single dose of 50 mg, micronized aqueous suspension, injected; cited from earlier work
# [5] = dry milled LB powder dispersed in 1% polysorbate 20, replicate runs
# [6] = spray dried LB powder dispersed in 0.5% polysorbate 80, replicate runs
# [7] = wet milled 15 minutes, LB suspension, replicate runs
structure (smiles),measurement,setting,value
"C#C[C@]1(OC(=O)CCC)CC[C@H]2[C@@H]3CCC4=CC(=O)CC[C@@H]4[C@H]3CC[C@@]21CC [LB, Levonorgestrel Butanoate]",time to return to ovulation,[1],increases with increasing particle size of LB in the formulation and in many cases exceeding six months
same,particle size D10,[2]; [5],5.3 μm and 5.1 μm and 4.3 μm
same,particle size D90,[2]; [5],89.5 μm and 62.2 μm and 65.0 μm
same,particle size Mean,[2]; [5],38.6 μm and 30.7 μm and 29.9 μm
same,particle size Median,[2]; [5],23.1 μm and 22.7 μm and 18.6 μm
same,particle size D10,[2]; [6],8.3 μm and 8.2 μm (2×)
same,particle size D90,[2]; [6],24.7 μm and 24.8 μm (2×)
same,particle size Median,[2]; [6],15.8 μm
same,particle size D10,[2]; [7],5.4 μm (2×) and 4.3 μm
same,particle size D90,[2]; [7],47.3 μm and 50.9 μm and 54.9 μm
same,particle size Mean,[2]; [7],23.2 μm and 25.2 μm and 26.9 μm
same,particle size Median,[2]; [7],18.0 μm and 18.4 μm and 21.0 μm
same,"Assay Results - Concentration of LB, Average",[3]; 15 minutes,20.03 mg/mL
same,Particle Size D50,[3]; 15 minutes,6.3 μm
same,Particle Size VMD,[3]; 15 minutes,8.1 μm
same,particle size D10,[3]; 15 minutes,1.4 μm
same,particle size D90,[3]; 15 minutes,17.1 μm
same,"Assay Results - Concentration of LB, Average",[3]; 30 minutes,20.00 mg/mL
same,Particle Size D50,[3]; 30 minutes,6.3 μm
same,Particle Size VMD,[3]; 30 minutes,8.1 μm
same,particle size D10,[3]; 30 minutes,1.4 μm
same,particle size D90,[3]; 30 minutes,17.2 μm
same,"suppression of ovulation, duration",[4],5-6 months
